Test results from patent publication US20080153839A1, “USE OF ANISIC ACID FOR PROMOTING DESQUAMATION” (L'OREAL, priority 2006, published 2008).

Tested on: stratum corneum of normal human skin fragments kept in survival
Experiment: Cohesion of the stratum corneum on skin kept in survival, histological slices stained with hemalun-eosin
Format: cell-based
Conditions: for % increase in desquamation relative to the control skin / Scores (histological evaluation of the cohesion of the horny layer, semi-quantitative scores): topical; for Scores (histological evaluation of the cohesion of the horny layer, semi-quantitative scores): average of 6 donors, score 0-4, the higher the score the lower the cohesion
Method: Fragments of normal human skin are obtained by plastic surgery from 6 different donors. They are placed in inserts, which are themselves positioned on culture wells containing culture medium specifically adapted for maintaining the skin fragments in survival (antibiotics, FCS). The anisic acid is applied topically according to the following protocol and in comparison with an untreated skin (control skin): • control skin • skin+[…] • skin+[…] The cohesion of the horny layer was evaluated using stained histological slices, according to the following semi-quantitative scores (evaluation on 10 to 15 fields at magnification 40): • score 0 absence of change of cohesion of the stratum corneum • score 1 slight reduction in cohesion of the stratum corneum • score 2 moderate reduction in cohesion of the stratum corneum • score 3 large reduction in cohesion of the stratum corneum • score 4 very large reduction in cohesion of the stratum corneum with exfoliation. An average is determined for each parameter from the results obtained on the 6 skin models. The statistical analysis is performed by means of the “reduced deviation” Student test or the paired samples test, with a risk of 5%.

[1] = 0.1% anisic acid, listed as anisic acid
[2] = 1% anisic acid, listed as anisic acid

## COc1ccc(C(=O)O)cc1 [Anisic acid, 4-methoxybenzoic acid]
0.1% and 1%, histological reduction in the cohesion of the stratum corneum, no dose effect
  desquamating activity after topical application relative to the control skins: significant desquamating activity
0.1% anisic acid
  % increase in desquamation relative to the control skin: 95.9%
  Scores (histological evaluation of the cohesion of the horny layer, semi-quantitative scores): 1.43 ± 0.7
[1]
  Scores (histological evaluation of the cohesion of the horny layer, semi-quantitative scores): 1.43
  % increase in desquamation relative to the control skin: 95.9%
1% anisic acid
  % increase in desquamation relative to the control skin: 115%
  Scores (histological evaluation of the cohesion of the horny layer, semi-quantitative scores): 1.57 ± 0.4
[2]
  Scores (histological evaluation of the cohesion of the horny layer, semi-quantitative scores): 1.57
  % increase in desquamation relative to the control skin: 115%
